Reference: patent US11472803B2, “7-substituted 1-aryl-naphthyridine-3-carboxylic acid amides and use thereof” (Bayer Aktiengesellschaft, priority 2016, dated 2022)

Key:
[1] = target: T1, human M2 receptor (Homo sapiens, UniProt P08172); test: Functional M2-GIRK1/4 activation test: allosteric potency (EC50) and efficiency at EC20 acetylcholine; type: cell-based; conditions: CHO-DUKX-M2-GIRK cells; for EC50: voltage-sensitive dye, acetylcholine at EC20, in some cases mean of two or more determinations; for Emax / Efficiency: boosting of the acetylcholine effect at EC20 acetylcholine concentration
T1 construct: expressed in transfected cells; host or cells: CHO-DUKX (CHO-DUKX-M2-GIRK)
T1 sequence (P08172 1-466): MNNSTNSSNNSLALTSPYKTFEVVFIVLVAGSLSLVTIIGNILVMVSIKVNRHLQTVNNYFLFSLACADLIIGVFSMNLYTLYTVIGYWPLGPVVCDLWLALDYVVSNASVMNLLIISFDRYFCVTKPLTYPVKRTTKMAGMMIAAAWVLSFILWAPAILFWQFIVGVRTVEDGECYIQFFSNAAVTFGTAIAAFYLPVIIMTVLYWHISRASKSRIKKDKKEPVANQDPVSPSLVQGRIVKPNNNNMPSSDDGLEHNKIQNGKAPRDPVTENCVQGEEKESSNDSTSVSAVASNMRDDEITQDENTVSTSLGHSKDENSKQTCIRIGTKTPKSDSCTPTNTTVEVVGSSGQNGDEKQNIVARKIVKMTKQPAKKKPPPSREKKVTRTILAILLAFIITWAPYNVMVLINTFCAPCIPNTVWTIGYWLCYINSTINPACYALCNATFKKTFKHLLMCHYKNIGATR
How it was run: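 CHO-DUKX cells stably expressing human M2 and GIRK1/4; membrane potential tracked with voltage-sensitive dye at room temperature. Compound added 50 s before acetylcholine at its EC20, then hyperpolarization read 60 s. EC50 (allosteric potency) and efficiency (boost of EC20 ACh effect) from 4-parameter Hill fit.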

[2] = target: T1, human M2 receptor; test: Functional M2-GIRK1/4 activation test: positive cooperativity (α factor), shift of acetylcholine dose-response curve; type: cell-based; conditions: Allosteric EC50 shift of acetylcholine 8-point dose-response curve; CHO-DUKX-M2-GIRK cells; α>1 = positive cooperativity
Description: The binding of orthosteric agonists (endogenous ligand: acetylcholine) to the M2 receptor leads to receptor activation or a change in conformation of the receptor in the manner of a shift in equilibrium in favour of the active receptor conformation.
The agonist-induced change in conformation of the M2 receptor results in a Gαi protein activation. […] Under physiological conditions, the result is then a selective efflux of potassium from the cell along the electrochemical gradient. […] The extent of hyperpolarization can therefore be regarded as a measure of the activation of the M2 receptor.
The test cell used is a recombinant CHO-DUKX cell line which has been stably transfected with cDNA coding for the human M2 receptor and with cDNA coding for both GIRK1/4 subunits (CHO-DUKX-M2-GIRK). The transmembrane potential, or the relative changes in the transmembrane potential as a function of substance addition or M2 activation, is determined by means of a voltage-sensitive dye (FLIPR Membrane Potential Assay Kit Blue, Molecular Devices #R8034) and the measurement of cell fluorescence using a proprietary fluorescence imaging instrument.
In accordance with the desired test concentrations, the substances were pre-diluted in loading buffer (see above).
The sowing medium consisted of MEM alpha medium (supplemented with 5% PCS, 2% Glutamax, no genticin).
For the particular measurement, the medium was removed and the cells were laden with the volt-age-sensitive dye for at least 6 min at room temperature (30 μl of loading buffer per 384-well). This was followed, in a first measurement, by the determination of the resting transmembrane potential for a period of 5 sec in 1 sec increments. Thereafter, 10 μl in each case of the test substances diluted in loading buffer are added, followed by a second measurement to determine the transmembrane potential for a period of 50 sec in 1 sec increments.
Finally, the cells are admixed with 10 μl of agonist solution (acetylcholine dissolved in loading buffer). In contrast to the EC50 determination of the test substances (see B-1.1), however, this is not done using one acetylcholine concentration; instead, every concentration of the test substance is combined with an acetylcholine 8-point dose-response curve. […] The M2-mediated GIRK1/4 activation or hyperpolarization is then monitored in a third measurement over a period of 60 sec in 1 sec increments. The shift in the acetylcholine dose-response curve in the presence of increasing concentrations of the test substance is analysed and quantified by means of GraphPad PRISM (Allosteric EC50 shift). […] Positive cooperativity is the hallmark of a positive allosteric modulator. […] The greater the magnitude of the α value, the greater the extent of cooperativity between orthosteric and allosteric.

| EC50 [1] [nM] | Emax [1] [%] | Cooperativity (alpha factor) [2] | Efficiency [1] [%] | SMILES |
| --- | --- | --- | --- | --- |
| 30 | 89 | 14 |  | CCN(CC(C)O)c1nc2c(cc1F)c(=O)c(C(=O)N[C@@H](C1CC1)C(F)(F)F)cn2-c1c(F)cc(F)cc1F (mixture of isomers) [Example 65, N-[(1S)-1-Cyclopropyl-2,2,2-trifluoroethyl]-7-[ethyl(2-hydroxypropyl)amino]-6-fluoro-4-oxo-1-(2,4,6-trifluorophenyl)-1,4-dihydro-1,8-naphthyridine-3-carboxamide] |
| 4.25 | 100 | 33 |  | CC(NC(=O)c1cn(-c2c(F)cc(F)cc2F)c2nc(N3CC[C@H](O)C3)c(F)cc2c1=O)C(F)(F)C(F)(F)F (mixture of isomers) [Example 112, 6-Fluoro-7-[(3S)-3-hydroxypyrrolidin-1-yl]-4-oxo-N-[3,3,4,4,4-pentafluorobutan-2-yl]-1-(2,4,6-trifluorophenyl)-1,4-dihydro-1,8-naphthyridine-3-carboxamide] |
| 3.8 |  | 34 | 99 | CC(NC(=O)c1cn(-c2c(F)cc(F)cc2F)c2nc(N3CC(CO)(CO)C3)c(F)cc2c1=O)C(F)(F)C(F)(F)F (racemic) [Example 169, 7-[3,3-Bis(hydroxymethyl)azetidin-1-yl]-6-fluoro-4-oxo-N-[3,3,4,4,4-pentafluorobutan-2-yl]-1-(2,4,6-trifluorophenyl)-1,4-dihydro-1,8-naphthyridine-3-carboxamide] |
| 8.1 |  | 38 | 100 | CC(NC(=O)c1cn(-c2c(F)cc(F)cc2F)c2nc(N3CC(CO)(CO)C3)c(F)cc2c1=O)C(F)(F)C(F)(F)F (racemic) [Example 170, 7-[3,3-Bis(hydroxymethyl)azetidin-1-yl]-6-fluoro-4-oxo-N-[3,3,4,4,4-pentafluorobutan-2-yl]-1-(2,4,6-trifluorophenyl)-1,4-dihydro-1,8-naphthyridine-3-carboxamide] |
| 3.3 |  | 35 | 94 | CCC(NC(=O)c1cn(-c2c(F)cc(F)cc2F)c2nc(N3CC(CO)(CO)C3)c(F)cc2c1=O)C(F)(F)C(F)(F)F (racemic) [Example 172, 7-[3,3-Bis(hydroxymethyl)azetidin-1-yl]-6-fluoro-4-oxo-N-[1,1,1,2,2-pentafluoropentan-3-yl]-1-(2,4,6-trifluorophenyl)-1,4-dihydro-1,8-naphthyridine-3-carboxamide] |
| 2.5 |  | 39 | 99 | CCC(NC(=O)c1cn(-c2c(F)cc(F)cc2F)c2nc(N3CC(CO)(CO)C3)c(F)cc2c1=O)C(F)(F)C(F)(F)F (racemic) [Example 173, 7-[3,3-Bis(hydroxymethyl)azetidin-1-yl]-6-fluoro-4-oxo-N-[1,1,1,2,2-pentafluoropentan-3-yl]-1-(2,4,6-trifluorophenyl)-1,4-dihydro-1,8-naphthyridine-3-carboxamide] |
|  | 91 | 39 |  | CC(NC(=O)c1cn(-c2c(F)cc(F)cc2F)c2nc(N3C[C@@H](O)[C@H](O)C3)c(F)cc2c1=O)C(F)(F)C(F)(F)F (single isomer, unassigned) [Example 9] |
|  |  | 70 |  | CC(NC(=O)c1cn(-c2c(F)cc(F)cc2F)c2nc(N3C[C@@H](O)[C@H](O)C3)c(F)cc2c1=O)C(F)(F)C(F)(F)F (single isomer, unassigned) [Example 10] |
| 4.15 | 100 | 37 |  | CCC(COC(F)(F)F)NC(=O)c1cn(-c2c(F)cc(F)cc2F)c2nc(N3C[C@@H](O)[C@H](O)C3)c(F)cc2c1=O (single isomer, unassigned) [Example 31] |
| 4.3 |  | 54 | 100 | CCC(COC(F)(F)F)NC(=O)c1cn(-c2c(F)cc(F)cc2F)c2nc(N3C[C@@H](O)[C@H](O)C3)c(F)cc2c1=O (single isomer, unassigned) [Example 32] |
| 8.47 | 100 | 62 |  | CC(NC(=O)c1cn(-c2ncc(F)cc2F)c2nc(N3CC(O)C(O)C3)c(F)cc2c1=O)C(F)(F)C(F)(F)F (single isomer, unassigned) [Example 45] |
| 1.8 |  | 42 | 78 | CC[C@H](NC(=O)c1cn(-c2c(F)cc(F)cc2Cl)c2nc(N3C[C@@H](O)[C@H](O)C3)c(F)cc2c1=O)C(F)(F)F (single isomer, unassigned) [Example 48] |
| 4.2 |  | 26 | 94 | O=C(N[C@@H](C1CC1)C(F)(F)F)c1cn(-c2c(F)cc(F)cc2Cl)c2nc(N3CC(CO)(CO)C3)c(F)cc2c1=O (single isomer, unassigned) [Example 71] |
|  | 100 | 34 |  | CC(NC(=O)c1cn(-c2c(F)cc(F)cc2F)c2nc(N3C[C@@H](O)[C@@H](O)C3)c(F)cc2c1=O)C(F)(F)C(F)(F)F (single isomer, unassigned) [Example 94] |
| 2 | 100 | 35 |  | CC(NC(=O)c1cn(-c2c(F)cc(F)cc2F)c2nc(N3CC[C@H](O)C3)c(F)cc2c1=O)C(F)(F)C(F)(F)F (single isomer, unassigned) [Example 113] |
| 1.5 |  | 40 | 94 | CC(C)(NC(=O)c1cn(-c2c(F)cc(F)cc2Cl)c2nc(N3C[C@@H](O)[C@H](O)C3)c(F)cc2c1=O)C(F)F (single isomer, unassigned) [Example 143] |
| 8.8 | 100 | 27 |  | CC(NC(=O)c1cn(-c2c(F)cc(F)cc2F)c2nc(N3CCC(O)C(O)C3)c(F)cc2c1=O)C(F)(F)C(F)(F)F (single isomer, unassigned) [Example 182, 7-(3,4-Dihydroxypiperidin-1-yl)-6-fluoro-4-oxo-N-(3,3,4,4,4-pentafluorobutan-2-yl)-1-(2,4,6-trifluorophenyl)-1,4-dihydro-1,8-naphthyridine-3-carboxamide] |
| 4.5 | 90 | 24 |  | CC(NC(=O)c1cn(-c2c(F)cc(F)cc2F)c2nc(N3CCC[C@@H]3CO)c(F)cc2c1=O)C(F)(F)C(F)(F)F (single isomer, unassigned) [Example 184] |
| 9.7 | 90 |  |  | CC(NC(=O)c1cn(-c2c(F)cc(F)cc2F)c2nc(N3CCC4(C3)NC(=O)N(C)C4=O)c(F)cc2c1=O)C(F)(F)C(F)(F)F (stereo not drawn) [Example 234, 6-Fluoro-7-(3-methyl-2,4-dioxo-1,3,7-triazaspiro[4.4]non-7-yl)-4-oxo-N-[3,3,4,4,4-pentafluorobutan-2-yl]-1-(2,4,6-trifluorophenyl)-1,4-dihydro-1,8-naphthyridine-3-carboxamide] |
| 4 | 92 |  |  | CC(NC(=O)c1cn(-c2c(F)cc(F)cc2F)c2nc(N3CCC4(C3)NC(=O)NC4=O)c(F)cc2c1=O)C(F)(F)C(F)(F)F (stereo not drawn) [Example 235, 7-(2,4-Dioxo-1,3,7-triazaspiro[4.4]non-7-yl)-6-fluoro-4-oxo-N-[3,3,4,4,4-pentafluorobutan-2-yl]-1-(2,4,6-trifluorophenyl)-1,4-dihydro-1,8-naphthyridine-3-carboxamide] |
